Test results as given in ChEMBL document CHEMBL4819104, “Discovery of 2-amino-3-amido-5-aryl-pyridines as highly potent, orally bioavailable, and efficacious PERK kinase inhibitors” (Bioorg Med Chem Lett, 2021).
Converted amounts (≈) assume the structure as drawn. One block for each compound: values may come before it.

Experiments:
[1] = Efflux ratio of apparent permeability in human Caco-2 cells; assay type: ADME, cell-based
[2] = Aqueous solubility of the compound; assay type: physicochemical; settings: buffer
[3] = Apparent permeability of the compound across apical to basolateral side in human Caco-2 cells; assay type: ADME, cell-based; settings: read-out: permeability
[4] = Plasma protein binding in human; assay type: ADME, cell-free; settings: read-out: PPB (converted)
[5] = Half life in dog hepatocytes; assay type: ADME, cell-based, Canis lupus familiaris, Hepatocyte
[6] = Plasma protein binding in rat; assay type: ADME, cell-free; settings: read-out: PPB (converted)
[7] = Plasma protein binding in dog; assay type: ADME, cell-free, Canis lupus familiaris; settings: read-out: PPB (converted)
[8] = Half life in human hepatocytes; assay type: ADME, cell-based, Hepatocyte
[9] = Half life in mouse hepatocytes; assay type: ADME, cell-based, Hepatocyte
[10] = target: T1, Eukaryotic translation initiation factor 2-alpha kinase 3 (Homo sapiens, UniProt Q9NZJ5); test: Inhibition of human His-tagged PERK expressed in Escherichia coli assessed as eIF2alpha phosphorylation by TR-FRET assay
T1 sequence (Q9NZJ5 whole entry): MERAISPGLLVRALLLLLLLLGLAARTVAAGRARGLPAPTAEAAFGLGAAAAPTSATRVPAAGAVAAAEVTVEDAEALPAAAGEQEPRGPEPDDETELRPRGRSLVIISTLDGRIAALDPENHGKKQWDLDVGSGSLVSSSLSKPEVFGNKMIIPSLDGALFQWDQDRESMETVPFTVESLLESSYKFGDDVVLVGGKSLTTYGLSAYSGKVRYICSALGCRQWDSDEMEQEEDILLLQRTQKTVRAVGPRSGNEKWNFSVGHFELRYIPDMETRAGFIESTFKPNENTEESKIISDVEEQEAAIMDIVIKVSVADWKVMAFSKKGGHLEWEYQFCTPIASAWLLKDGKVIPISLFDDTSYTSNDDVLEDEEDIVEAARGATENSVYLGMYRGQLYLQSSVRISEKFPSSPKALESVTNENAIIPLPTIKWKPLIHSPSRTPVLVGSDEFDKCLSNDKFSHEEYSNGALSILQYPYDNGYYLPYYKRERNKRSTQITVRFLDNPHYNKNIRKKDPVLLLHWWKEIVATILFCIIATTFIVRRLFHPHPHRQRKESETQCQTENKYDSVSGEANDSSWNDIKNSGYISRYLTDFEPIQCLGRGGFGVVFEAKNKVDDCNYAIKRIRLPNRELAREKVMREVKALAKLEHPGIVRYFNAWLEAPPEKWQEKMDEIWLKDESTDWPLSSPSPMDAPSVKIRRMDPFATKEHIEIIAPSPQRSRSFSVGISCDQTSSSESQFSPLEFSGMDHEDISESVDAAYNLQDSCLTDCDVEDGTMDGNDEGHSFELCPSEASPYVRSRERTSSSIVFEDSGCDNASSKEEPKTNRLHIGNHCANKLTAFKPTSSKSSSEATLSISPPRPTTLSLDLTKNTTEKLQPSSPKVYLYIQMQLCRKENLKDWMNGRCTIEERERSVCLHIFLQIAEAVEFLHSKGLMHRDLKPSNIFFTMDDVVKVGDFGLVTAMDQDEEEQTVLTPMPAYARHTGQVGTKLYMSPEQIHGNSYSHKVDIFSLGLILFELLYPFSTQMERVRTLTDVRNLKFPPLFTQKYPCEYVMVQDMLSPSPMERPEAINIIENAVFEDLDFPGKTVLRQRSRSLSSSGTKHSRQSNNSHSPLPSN

[11] = Cmax in mouse at 10 mg/kg, po; assay type: ADME, organism-based; design: route oral, dose 10 mg/kg; settings: in vivo
[12] = AUC (0 to last) in mouse at 10 mg/kg, po; assay type: ADME, organism-based; design: time 0 - last, route oral, dose 10 mg/kg; settings: in vivo
[13] = Plasma protein binding in mouse; assay type: ADME, cell-free; settings: read-out: PPB (converted)
[14] = Half life in mouse at 10 mg/kg, po; assay type: ADME, organism-based; settings: in vivo
[15] = Oral bioavailability in mouse at 10 mg/kg; assay type: ADME, organism-based; settings: in vivo
[16] = Half life in rat hepatocytes; assay type: ADME, cell-based, Hepatocyte
[17] = target: Aurora kinase B (Homo sapiens) (UniProt Q96GD4); test: Inhibition of wild-type human partial length AURKB (D25 to A303 residues) expressed in mammalian expression system assessed as residual activity at 10 uM by Kinomescan method relative to control
[18] = target: T2, Mitogen-activated protein kinase 12 (Homo sapiens) (UniProt P53778); test: Inhibition of wild-type human full length p38-gamma (M1 to L367 residues) expressed in mammalian expression system assessed as residual activity at 10 uM by Kinomescan method relative to control
T2 sequence (whole entry): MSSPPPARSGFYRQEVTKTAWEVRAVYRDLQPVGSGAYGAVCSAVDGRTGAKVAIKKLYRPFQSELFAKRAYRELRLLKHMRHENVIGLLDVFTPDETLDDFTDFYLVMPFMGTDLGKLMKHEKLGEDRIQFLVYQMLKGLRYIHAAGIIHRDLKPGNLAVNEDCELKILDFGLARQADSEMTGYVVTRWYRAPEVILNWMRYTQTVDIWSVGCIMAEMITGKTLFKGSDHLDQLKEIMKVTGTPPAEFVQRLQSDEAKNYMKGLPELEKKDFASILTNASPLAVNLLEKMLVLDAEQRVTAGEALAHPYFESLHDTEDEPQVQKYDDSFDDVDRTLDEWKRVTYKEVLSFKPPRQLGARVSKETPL

[19] = target: Epithelial discoidin domain-containing receptor 1 (Homo sapiens) (UniProt Q08345); test: Inhibition of wild-type human partial length DDR1 (R565 to V876 residues) expressed in bacterial expression system assessed as residual activity at 10 uM by Kinomescan method relative to control
[20] = target: Proto-oncogene tyrosine-protein kinase Src (Homo sapiens) (UniProt P12931); test: Inhibition of wild-type human partial length SRC (L240 to L536 residues) expressed in bacterial expression system assessed as residual activity at 10 uM by Kinomescan method relative to control
[21] = target: Tyrosine-protein kinase receptor UFO (Homo sapiens) (UniProt P30530); test: Inhibition of wild-type human partial length AXL (R497 to Y821 residues) expressed in bacterial expression system assessed as residual activity at 10 uM by Kinomescan method relative to control
[22] = target: Platelet-derived growth factor receptor beta (Homo sapiens) (UniProt P09619); test: Inhibition of wild-type human partial length PDGFRbeta (V582 to Y1009 residues) expressed in bacterial expression system assessed as residual activity at 10 uM by Kinomescan method relative to control
[23] = target: T3, Receptor-interacting serine/threonine-protein kinase 1 (Homo sapiens) (UniProt Q13546); test: Inhibition of wild-type human partial length RIPK1 (M1 to K305 residues) expressed in bacterial expression system assessed as residual activity at 10 uM by Kinomescan method relative to control
T3 sequence (whole entry): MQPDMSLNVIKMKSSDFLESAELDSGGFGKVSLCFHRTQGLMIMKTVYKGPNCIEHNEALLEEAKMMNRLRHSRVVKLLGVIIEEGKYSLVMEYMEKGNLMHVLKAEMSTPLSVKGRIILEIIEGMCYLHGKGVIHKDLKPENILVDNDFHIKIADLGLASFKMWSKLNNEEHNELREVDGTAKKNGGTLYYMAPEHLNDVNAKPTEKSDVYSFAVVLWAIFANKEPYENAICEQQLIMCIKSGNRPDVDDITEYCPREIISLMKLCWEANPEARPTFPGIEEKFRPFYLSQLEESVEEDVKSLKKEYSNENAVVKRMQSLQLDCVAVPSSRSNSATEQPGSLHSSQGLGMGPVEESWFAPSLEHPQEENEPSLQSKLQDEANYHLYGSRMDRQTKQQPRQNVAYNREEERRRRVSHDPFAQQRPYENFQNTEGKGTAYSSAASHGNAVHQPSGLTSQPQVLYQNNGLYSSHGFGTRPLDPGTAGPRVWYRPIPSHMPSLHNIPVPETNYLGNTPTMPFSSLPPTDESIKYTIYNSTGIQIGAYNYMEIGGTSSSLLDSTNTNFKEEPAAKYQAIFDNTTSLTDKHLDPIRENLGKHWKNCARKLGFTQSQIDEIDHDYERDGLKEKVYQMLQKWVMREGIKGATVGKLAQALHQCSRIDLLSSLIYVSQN

[24] = target: Mast/stem cell growth factor receptor Kit (Homo sapiens) (UniProt P10721); test: Inhibition of wild-type human partial length KIT (I571 to D952 residues) expressed in bacterial expression system assessed as residual activity at 10 uM by Kinomescan method relative to control
[25] = tested on: Tyrosine-protein kinase ABL1 (Homo sapiens), P00519 [F317L]; test: Inhibition of human non-phosphorylated ABL1 F317L mutant (S229 to K512 residues) expressed in mammalian expression system assessed as residual activity at 10 uM by Kinomescan method relative to control
[26] = target: Angiopoietin-1 receptor (Homo sapiens) (UniProt Q02763); test: Inhibition of wild-type human partial length TIE2 (N804 to T1112 residues) expressed in bacterial expression system assessed as residual activity at 10 uM by Kinomescan method relative to control
[27] = target: Macrophage colony-stimulating factor 1 receptor (Homo sapiens) (UniProt P07333); test: Inhibition of wild-type human partial length CSF1R (I564 to S939 residues) expressed in bacterial expression system assessed as residual activity at 10 uM by Kinomescan method relative to control
[28] = target: BDNF/NT-3 growth factors receptor (Homo sapiens) (UniProt Q16620); test: Inhibition of wild-type human partial length TRKB (Q547 to G838 residues) expressed in mammalian expression system assessed as residual activity at 10 uM by Kinomescan method relative to control
Chain of BDNF/NT-3 growth factors receptor (Homo sapiens) (Q16620 32-822 limits assumed): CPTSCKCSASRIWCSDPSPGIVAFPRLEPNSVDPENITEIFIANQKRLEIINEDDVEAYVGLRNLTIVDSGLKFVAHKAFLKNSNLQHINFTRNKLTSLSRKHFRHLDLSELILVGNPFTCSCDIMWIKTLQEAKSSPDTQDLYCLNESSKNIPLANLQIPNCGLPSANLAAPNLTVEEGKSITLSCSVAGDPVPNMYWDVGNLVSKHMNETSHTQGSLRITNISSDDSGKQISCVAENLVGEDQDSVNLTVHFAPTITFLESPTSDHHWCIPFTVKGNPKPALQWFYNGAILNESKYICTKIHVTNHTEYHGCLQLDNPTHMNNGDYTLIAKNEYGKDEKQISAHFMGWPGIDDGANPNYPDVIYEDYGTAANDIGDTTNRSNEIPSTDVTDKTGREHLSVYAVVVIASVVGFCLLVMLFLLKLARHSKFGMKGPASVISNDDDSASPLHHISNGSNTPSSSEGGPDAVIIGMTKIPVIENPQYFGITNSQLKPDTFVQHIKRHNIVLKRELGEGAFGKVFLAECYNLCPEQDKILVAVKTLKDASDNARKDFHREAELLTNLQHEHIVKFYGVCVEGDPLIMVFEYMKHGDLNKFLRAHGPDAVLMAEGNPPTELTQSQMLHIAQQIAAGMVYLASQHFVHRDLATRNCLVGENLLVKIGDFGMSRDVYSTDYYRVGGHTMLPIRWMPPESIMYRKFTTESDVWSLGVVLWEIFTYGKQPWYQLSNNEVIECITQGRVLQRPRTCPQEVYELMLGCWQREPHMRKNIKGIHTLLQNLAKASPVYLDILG

Chain of Tyrosine-protein kinase receptor UFO (Homo sapiens) (P30530 whole entry, the tested form may be a part): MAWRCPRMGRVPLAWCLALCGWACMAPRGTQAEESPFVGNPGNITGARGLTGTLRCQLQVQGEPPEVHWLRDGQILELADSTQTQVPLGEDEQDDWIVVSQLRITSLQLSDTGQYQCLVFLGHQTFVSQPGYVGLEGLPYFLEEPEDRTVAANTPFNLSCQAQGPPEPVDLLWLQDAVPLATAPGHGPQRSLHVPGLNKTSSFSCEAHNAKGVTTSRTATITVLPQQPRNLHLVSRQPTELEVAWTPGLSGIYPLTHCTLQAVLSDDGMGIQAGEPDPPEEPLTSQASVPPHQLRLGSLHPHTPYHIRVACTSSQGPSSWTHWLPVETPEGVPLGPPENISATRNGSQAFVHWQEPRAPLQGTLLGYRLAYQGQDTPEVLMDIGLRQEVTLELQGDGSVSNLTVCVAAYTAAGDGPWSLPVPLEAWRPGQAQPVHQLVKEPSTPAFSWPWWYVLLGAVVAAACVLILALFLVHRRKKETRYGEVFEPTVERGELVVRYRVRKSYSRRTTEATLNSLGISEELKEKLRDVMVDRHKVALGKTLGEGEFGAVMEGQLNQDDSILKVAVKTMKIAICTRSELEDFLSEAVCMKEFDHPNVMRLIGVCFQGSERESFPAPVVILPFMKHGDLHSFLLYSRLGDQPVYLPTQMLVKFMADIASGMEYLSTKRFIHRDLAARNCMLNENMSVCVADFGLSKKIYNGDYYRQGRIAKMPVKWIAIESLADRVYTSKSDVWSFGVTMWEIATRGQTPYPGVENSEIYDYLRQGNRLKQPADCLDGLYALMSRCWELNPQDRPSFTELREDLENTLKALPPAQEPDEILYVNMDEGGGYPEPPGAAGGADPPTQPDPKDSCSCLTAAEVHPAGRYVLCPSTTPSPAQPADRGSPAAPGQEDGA
Chain of Platelet-derived growth factor receptor beta (Homo sapiens) (P09619 whole entry, the tested form may be a part): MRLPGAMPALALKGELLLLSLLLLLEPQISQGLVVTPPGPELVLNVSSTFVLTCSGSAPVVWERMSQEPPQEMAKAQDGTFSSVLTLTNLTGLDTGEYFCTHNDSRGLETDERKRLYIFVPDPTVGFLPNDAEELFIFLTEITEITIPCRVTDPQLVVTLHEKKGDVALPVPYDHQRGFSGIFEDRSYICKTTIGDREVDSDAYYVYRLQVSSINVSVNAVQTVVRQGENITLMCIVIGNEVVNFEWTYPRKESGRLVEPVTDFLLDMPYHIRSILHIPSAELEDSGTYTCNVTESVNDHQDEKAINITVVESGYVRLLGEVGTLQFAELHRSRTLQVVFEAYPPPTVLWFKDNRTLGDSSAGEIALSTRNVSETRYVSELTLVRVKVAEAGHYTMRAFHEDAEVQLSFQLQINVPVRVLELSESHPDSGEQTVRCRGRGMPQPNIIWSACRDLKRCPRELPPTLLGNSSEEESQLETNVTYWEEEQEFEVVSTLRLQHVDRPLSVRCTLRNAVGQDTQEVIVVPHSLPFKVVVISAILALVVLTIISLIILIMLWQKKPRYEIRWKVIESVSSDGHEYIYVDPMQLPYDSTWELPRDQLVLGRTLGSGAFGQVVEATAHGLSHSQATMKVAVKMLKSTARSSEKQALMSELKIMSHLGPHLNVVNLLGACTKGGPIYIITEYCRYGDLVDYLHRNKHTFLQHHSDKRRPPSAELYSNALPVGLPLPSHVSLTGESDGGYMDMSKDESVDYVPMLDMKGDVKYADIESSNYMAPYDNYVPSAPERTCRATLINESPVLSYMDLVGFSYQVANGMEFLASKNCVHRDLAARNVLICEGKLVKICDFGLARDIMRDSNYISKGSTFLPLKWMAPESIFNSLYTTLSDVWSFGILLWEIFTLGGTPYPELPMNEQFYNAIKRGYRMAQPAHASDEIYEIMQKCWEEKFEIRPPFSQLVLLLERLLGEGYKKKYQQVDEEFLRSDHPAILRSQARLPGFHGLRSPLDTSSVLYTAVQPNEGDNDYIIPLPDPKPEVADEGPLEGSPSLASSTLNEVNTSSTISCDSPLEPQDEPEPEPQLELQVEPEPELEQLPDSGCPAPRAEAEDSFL
Chain of Proto-oncogene tyrosine-protein kinase Src (Homo sapiens) (P12931 2-536 limits assumed): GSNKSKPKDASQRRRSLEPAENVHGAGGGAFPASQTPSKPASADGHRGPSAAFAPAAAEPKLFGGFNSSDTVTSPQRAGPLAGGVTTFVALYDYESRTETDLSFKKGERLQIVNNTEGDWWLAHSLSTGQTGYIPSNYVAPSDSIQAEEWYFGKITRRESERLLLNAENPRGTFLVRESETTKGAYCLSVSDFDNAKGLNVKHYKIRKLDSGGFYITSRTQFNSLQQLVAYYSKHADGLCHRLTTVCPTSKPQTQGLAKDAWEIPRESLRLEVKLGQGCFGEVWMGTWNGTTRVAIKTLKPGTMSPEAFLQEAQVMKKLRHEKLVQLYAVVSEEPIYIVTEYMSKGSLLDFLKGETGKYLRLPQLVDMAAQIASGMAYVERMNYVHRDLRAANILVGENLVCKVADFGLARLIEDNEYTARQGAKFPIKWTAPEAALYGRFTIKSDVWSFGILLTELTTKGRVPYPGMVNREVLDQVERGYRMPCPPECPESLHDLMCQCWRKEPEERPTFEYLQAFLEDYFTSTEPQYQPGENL
Chain of Mast/stem cell growth factor receptor Kit (Homo sapiens) (P10721 whole entry, the tested form may be a part): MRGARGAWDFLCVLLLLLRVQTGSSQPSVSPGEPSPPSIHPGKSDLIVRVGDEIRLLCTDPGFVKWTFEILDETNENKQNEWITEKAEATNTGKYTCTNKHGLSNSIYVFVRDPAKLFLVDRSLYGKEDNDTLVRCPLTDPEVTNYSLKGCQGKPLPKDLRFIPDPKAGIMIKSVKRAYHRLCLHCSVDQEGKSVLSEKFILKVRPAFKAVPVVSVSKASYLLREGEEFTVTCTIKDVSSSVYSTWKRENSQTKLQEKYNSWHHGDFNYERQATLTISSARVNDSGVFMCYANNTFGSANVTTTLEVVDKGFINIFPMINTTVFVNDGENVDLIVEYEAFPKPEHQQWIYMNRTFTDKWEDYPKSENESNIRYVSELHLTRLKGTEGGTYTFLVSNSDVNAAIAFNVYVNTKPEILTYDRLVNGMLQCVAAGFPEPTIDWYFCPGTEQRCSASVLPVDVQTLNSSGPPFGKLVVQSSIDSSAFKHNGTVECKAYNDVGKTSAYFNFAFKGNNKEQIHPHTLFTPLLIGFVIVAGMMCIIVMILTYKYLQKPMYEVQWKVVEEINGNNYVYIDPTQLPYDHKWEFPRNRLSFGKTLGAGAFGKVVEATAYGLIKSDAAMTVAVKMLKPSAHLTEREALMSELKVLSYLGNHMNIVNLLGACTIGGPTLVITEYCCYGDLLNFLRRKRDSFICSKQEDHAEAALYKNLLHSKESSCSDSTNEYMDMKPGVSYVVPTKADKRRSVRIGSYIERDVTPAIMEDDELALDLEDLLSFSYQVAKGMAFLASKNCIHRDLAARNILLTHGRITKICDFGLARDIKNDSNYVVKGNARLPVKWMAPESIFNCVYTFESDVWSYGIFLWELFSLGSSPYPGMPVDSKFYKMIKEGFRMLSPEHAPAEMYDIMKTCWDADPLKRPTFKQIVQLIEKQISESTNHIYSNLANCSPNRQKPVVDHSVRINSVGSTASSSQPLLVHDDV
Chain of Aurora kinase B (Homo sapiens) (Q96GD4 whole entry, the tested form may be a part): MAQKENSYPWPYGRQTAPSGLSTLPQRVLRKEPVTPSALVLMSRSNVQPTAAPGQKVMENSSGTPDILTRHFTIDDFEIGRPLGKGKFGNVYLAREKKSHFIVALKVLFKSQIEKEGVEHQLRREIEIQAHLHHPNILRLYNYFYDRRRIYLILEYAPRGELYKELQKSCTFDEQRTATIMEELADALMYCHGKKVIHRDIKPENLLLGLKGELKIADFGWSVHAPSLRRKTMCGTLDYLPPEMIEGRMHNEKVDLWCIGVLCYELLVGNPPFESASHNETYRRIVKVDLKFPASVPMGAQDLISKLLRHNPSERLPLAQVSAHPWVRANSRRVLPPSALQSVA

efflux ratio [1]: 2
solubility [2]: 31 µM (≈ 14.1 µg/mL)
Papp A→B [3]: 15 ×10⁻⁶ cm/s
fraction unbound [4]: 0.007
half-life [5]: 3.12 h
fraction unbound [6]: 0.024
fraction unbound [7]: 0.014
half-life [8]: 4.08 h
half-life [9]: 1.15 h
IC50 [10]: 4 nM
Cmax [11]: 1600 ng/mL
AUC(0-t) [12]: 2000 ng·h/mL
fraction unbound [13]: 0.017
half-life [14]: 1.2 h
bioavailability [15]: 49%
half-life [16]: 9.3 min
Compound: Cc1cc(NC(=O)[C@H](O)c2cc(F)cc(F)c2)ccc1-c1cnc(N)c(C(=O)NC(C)C)c1

Activity [17]: 5.3%
Activity [18]: 3.7%
Activity [19]: 1.3%
Activity [20]: 7%
Activity [21]: 8.2%
Activity [22]: 0.2%
Activity [23]: 0%
Activity [24]: 0.1%
Activity [25]: 0%
Activity [26]: 5.3%
Activity [27]: 1.8%
Activity [28]: 6.5%
Compound: Cc1cccc(CC(=O)N2CCc3c2ccc(-c2cn(C)c4ncnc(N)c24)c3F)n1
